According to patent US7585997B2, “Compounds and compositions for treating dysproliferative diseases, and methods of use thereof” (Chesterford Enterprises Limited, priority 2003, dated 2009):
Like-named read-outs stand apart in the source and are kept apart here.

Key:
Type in all cases: cell-based
[1] = test system: BxPC3, carcinoma of pancreas; test: Cell growth inhibition, BxPC3 cells; conditions: Homo sapiens, read-out: IC50, BxPC3, pancreas
[2] = test system: HT-29 human colon adenocarcinoma; test: Cell growth inhibition, HT-29 cells
JB6c141 rat skin cells = test: Colony Formation Assay (soft agar assay for colony formation); conditions: 100 micromolar, 14 days, with or without epidermal growth factor
Description: The Colony Formation Assay, also known as “soft agar assay for colony formation” as described by David Bowtell (accessed on the Internet as recently as on Dec. 29, 2003 at http://grimwade.biochem.unimelb.edu.au/bowtell/cellbiol/sect71.htm) was also used to asses the neoplastic cell growth inhibitory effect of these compounds and using the JB6c141 rat skin cells. Briefly, and following the plating of cells in the presence or absence of epidermal growth factor and in each case, in the presence or absence of the test compound, they were incubated at […] in a humidified incubator for 14 days, when plates were stained 0.005% Crystal Violet for >1 hour, colonies were counted using a dissecting microscope.

[3] = HT-29, 24 hr, read-out: IC50, HT-29, colon
[4] = HT-29, 24 h, read-out: IC50, HT-29, colon

Question: `CC(=O)Oc1ccccc1C(=O)Oc1ccc(CO)cc1` [2-(acetyloxy)benzoic acid 4-(hydroxymethyl)phenyl ester] was tested. Which IC50 ([1]; BXPC-3, 24 hr) did it give?
Answer: > 500 µM

Question: What about the IC50 [2, 3] of the same compound?
Answer: > 500 µM

Question: Which IC50 ([1]; BXPC-3, 24 hr) does the source give for `CC(=O)Oc1ccccc1C(=O)O` [Aspirin, reference compound] here?
Answer: > 1000 µM

Question: And the IC50 [2, 3]?
Answer: > 1000 µM

Question: With `O=C(/C=C/c1ccc(O)c(O)c1)Oc1ccc(CO)cc1` [Caffeic acid 4-(hydroxymethyl)phenyl ester] as the compound, how does the IC50 [2, 3] read?
Answer: > 500 µM

Question: With `O=C(O)/C=C/c1ccc(O)c(O)c1` [Caffeic acid, reference compound] as the compound, how does the IC50 ([1]; BXPC-3, 24 hr) read?
Answer: > 1000 µM

Question: What about the IC50 [2, 3] of the same compound?
Answer: > 1000 µM

Question: Which IC50 [2, 3] does the source give for `O=C(C=Cc1ccccc1)Oc1ccc(CO)cc1` [Cinnamic acid 4-(hydroxymethyl)phenyl ester] here?
Answer: 150 ± 12 µM

Question: How did the colony formation (JB6c141 rat skin cells) turn out when `CC(C(=O)Oc1ccc(COc2ccc([N+](=O)[O-])cc2[N+](=O)[O-])cc1)c1ccc(-c2ccccc2)c(F)c1` (stereo not drawn) [Compound 1] was run?
Answer: abolished colony formation

Question: What about the IC50 ([2]; HT-29, 48 h) of the same compound?
Answer: ~73 µM

Question: Which IC50 [2, 4] does the source give for `CC(=O)Oc1ccccc1C(=O)Nc1ccc(CCl)cc1` [Compound 26, 2-(acetyloxy)benzoic acid 4-(chloromethyl)phenyl amide] here?
Answer: 12 ± 3 µM

Question: Which IC50 ([1]; BXPC-3, 24 h) does the source give for `CC(=O)Oc1ccccc1C(=O)Nc1ccc(CBr)cc1` [Compound 29, 2-(acetyloxy)benzoic acid 4-(bromomethyl)phenyl amide] here?
Answer: 18 ± 3 µM

Question: And the IC50 [2, 4]?
Answer: 7 ± 2 µM

Question: Which IC50 [2, 4] does the source give for `O=C(/C=C/c1ccc(O)c(O)c1)Oc1ccc(CO[N+](=O)[O-])cc1` [Compound 41, caffeic acid 4-(nitrooxymethyl)phenyl ester] here?
Answer: ~0.5 µM

Question: For `O=C(/C=C/c1ccc(O)c(O)c1)Oc1ccc(CCl)cc1` [Compound 47, caffeic acid 4-(chloromethyl)phenyl ester], which IC50 [2, 4] is on record?
Answer: 0.25 µM
